# From paper PMC12217109, “Development of novel benzamide class I selective lysine deacetylase inhibitors as potent anticancer agents” (Journal of Enzyme Inhibition and Medicinal Chemistry, 2025)
# “Also recorded” adds a separate entry of the source. Like-named read-outs stand apart in the source and are kept apart here.
# Legend:
# [1] = system: A2780 ovarian cancer cell line; experiment: MTT cellular viability assay, A2780; assay type: cell-based; conditions: Homo sapiens
# TK-10 = experiment: NCI-60 cytotoxicity screen; assay type: cell-based, human; conditions: for IC50: Homo sapiens, TK-10, NCI-60, 48 h, renal
# From the text: (§1) Compounds 3–7 were submitted to the US National Cancer Institute (NIH, Bethesda, Maryland) for screening against the NCI-60 panel of human cancer cell lines, as per standard protocol.
# H322M = experiment: NCI-60 cytotoxicity screen; assay type: cell-based, human; conditions: for IC50: Homo sapiens, NCI-H322M, NCI-60, 48 h, NSCLC
# From the text: as §1
# UACC-257 = experiment: NCI-60 cytotoxicity screen; assay type: cell-based, human; conditions: for IC50: Homo sapiens, UACC-257, NCI-60, 48 h, melanoma
# From the text: as §1
# [2] = system: MCF7 breast cancer cell line; experiment: MTT cellular viability assay, MCF7; assay type: cell-based; conditions: Homo sapiens, 96 h
# Description: (§2) The human A2780 ovarian (#93112519) and MCF-7 breast (#86012803) cancer cell lines were obtained from the European Cell Culture Collection (ECACC; Salisbury, UK). The human cardiac ventricular AC16 cell line (#SCC109) was obtained from Merck/Millipore (UK). The A2780 and MCF-7 cell lines were maintained in RPMI-1640 medium and the AC16 cell line was maintained in DMEM/F12 medium. Culture medium of all three cell lines was supplemented with 10% heat-inactivated foetal bovine serum (FBS) and 2 mM L-glutamine, with the cells maintained in a humidified 5% CO2 atmosphere at 37 °C. The media was changed every 72h and the cells passaged via trypsinisation (Trypsin EDTA, 0.25%) before reaching confluency.
# (§3) Cytotoxicity of each compound against the cell lines was assessed using the MTT assay. Cells were seeded in three replicates into 96-well plates at a density of 2 × 10^3/well for 24h to facilitate cell attachment. Media was replaced with that containing either test compound (0–10µM) for A2780 and MCF7 cell lines, single concentration (10 µM) test compound for AC16 cell line, or drug vehicle (dimethyl sulphoxide; DMSO) and the cells incubated for a further 96 h at 37 °C in a humidified 5% CO2 atmosphere. […] Chemosensitivity was thereafter assessed using a standard 3-[4, 5-dimethylthiazolyl]-2,5-diphenyltetrazolium bromide (MTT) assay, with the optical density determined at 540 nm as an indicator of cellular viability.
# OVCAR-5 = experiment: NCI-60 cytotoxicity screen; assay type: cell-based; conditions: Homo sapiens, NCI-60, 48 h, ovarian
# acetylated tubulin = experiment: Flow cytometric analysis of tubulin acetylation in A2780 cells; assay type: cell-based, human; conditions: A2780, 24 h, 10 µM
# Description: (§4) The method was adapted from Ronzoni et al.[67] as previously described. A2780 cells were exposed to test compounds (0–10 µM) for 24 h, fixed with ice-cold ethanol (70% v/v) and permeabilised in the presence of 0.1% Triton-X. Non-specific protein binding was blocked using normal goat serum prior to incubation with or without primary antibodies raised against either anti-hyperacetylated Histone H4 (Penta) antibody (Upstate Biotechnology, USA) or acetylated tubulin (Sigma-Aldrich, UK), followed by incubation with FITC-conjugated secondary antibody (Dako). Cells were incubated in propidium iodide (PI) staining buffer (PBS with 50 µg/ml PI and 10 µg/ml RNase A) and subsequently analysed by flow cytometry (BD FACSCalibur; Becton Dickinson, UK). At least 15 000 events per sample were acquired and expression determined based on the detection of FITC fluorescence through the FL1 channel (530/30 nm bandpass optical filter), with cell doublets discriminated by forward/side scatter and background fluorescence omitted via comparison to unlabelled controls. Expression analysis was performed using CellQuest™ software (Becton Dickinson, UK).
# acetylated histone H4 = experiment: Flow cytometric analysis of histone H4 acetylation in A2780 cells; assay type: cell-based, human; conditions: A2780, 24 h, 5 µM or 10 µM
# Description: as §4
# SK-OV-3 = experiment: NCI-60 cytotoxicity screen; assay type: cell-based; conditions: Homo sapiens, NCI-60, 48 h, ovarian
# From the text: as §1
# MOLT-4 = experiment: NCI-60 cytotoxicity screen; assay type: cell-based; conditions: Homo sapiens, NCI-60, 48 h, leukaemia
# From the text: as §1
# HOP-92 = experiment: NCI-60 cytotoxicity screen; assay type: cell-based; conditions: Homo sapiens, NCI-60, 48 h, NSCLC
# From the text: as §1
# HT29 = experiment: NCI-60 cytotoxicity screen; assay type: cell-based; conditions: Homo sapiens, HT-29; NCI-60, 48 h, colon
# From the text: as §1
# H226 = experiment: NCI-60 cytotoxicity screen; assay type: cell-based; conditions: Homo sapiens, NCI-60, 48 h, NSCLC
# From the text: as §1
# A498 = experiment: NCI-60 cytotoxicity screen; assay type: cell-based; conditions: Homo sapiens, NCI-60, 48 h, renal
# From the text: as §1
# MALME-3M = experiment: NCI-60 cytotoxicity screen; assay type: cell-based; conditions: Homo sapiens, read-out: MALME-3M cytotoxicity IC50, NCI-60, 48 h, melanoma
# From the text: as §1
# T-47D = experiment: NCI-60 cytotoxicity screen; assay type: cell-based, human; conditions: for IC50: Homo sapiens, T47D, NCI-60, 48 h, breast
# MDA-MB-231 = experiment: NCI-60 cytotoxicity screen; assay type: cell-based; conditions: Homo sapiens, MDA-MB-231, read-out: MDA-MB-231 cytotoxicity IC50; NCI-60, 48 h, breast
# K562 = experiment: NCI-60 cytotoxicity screen; assay type: cell-based; conditions: Homo sapiens, NCI-60, 48 h, leukaemia
# [3] = system: AC16 ventricular cardiac cell line; experiment: MTT cellular viability assay, AC16; assay type: cell-based; conditions: Homo sapiens, 96 h, single concentration 10 µM
# Description: as §2, §3
# HDAC5 = HDAC5 (Homo sapiens, UniProt Q9UQL6); experiment: Inhibition of individual recombinant KDACs
# Sequence of HDAC5 (Q9UQL6 whole entry): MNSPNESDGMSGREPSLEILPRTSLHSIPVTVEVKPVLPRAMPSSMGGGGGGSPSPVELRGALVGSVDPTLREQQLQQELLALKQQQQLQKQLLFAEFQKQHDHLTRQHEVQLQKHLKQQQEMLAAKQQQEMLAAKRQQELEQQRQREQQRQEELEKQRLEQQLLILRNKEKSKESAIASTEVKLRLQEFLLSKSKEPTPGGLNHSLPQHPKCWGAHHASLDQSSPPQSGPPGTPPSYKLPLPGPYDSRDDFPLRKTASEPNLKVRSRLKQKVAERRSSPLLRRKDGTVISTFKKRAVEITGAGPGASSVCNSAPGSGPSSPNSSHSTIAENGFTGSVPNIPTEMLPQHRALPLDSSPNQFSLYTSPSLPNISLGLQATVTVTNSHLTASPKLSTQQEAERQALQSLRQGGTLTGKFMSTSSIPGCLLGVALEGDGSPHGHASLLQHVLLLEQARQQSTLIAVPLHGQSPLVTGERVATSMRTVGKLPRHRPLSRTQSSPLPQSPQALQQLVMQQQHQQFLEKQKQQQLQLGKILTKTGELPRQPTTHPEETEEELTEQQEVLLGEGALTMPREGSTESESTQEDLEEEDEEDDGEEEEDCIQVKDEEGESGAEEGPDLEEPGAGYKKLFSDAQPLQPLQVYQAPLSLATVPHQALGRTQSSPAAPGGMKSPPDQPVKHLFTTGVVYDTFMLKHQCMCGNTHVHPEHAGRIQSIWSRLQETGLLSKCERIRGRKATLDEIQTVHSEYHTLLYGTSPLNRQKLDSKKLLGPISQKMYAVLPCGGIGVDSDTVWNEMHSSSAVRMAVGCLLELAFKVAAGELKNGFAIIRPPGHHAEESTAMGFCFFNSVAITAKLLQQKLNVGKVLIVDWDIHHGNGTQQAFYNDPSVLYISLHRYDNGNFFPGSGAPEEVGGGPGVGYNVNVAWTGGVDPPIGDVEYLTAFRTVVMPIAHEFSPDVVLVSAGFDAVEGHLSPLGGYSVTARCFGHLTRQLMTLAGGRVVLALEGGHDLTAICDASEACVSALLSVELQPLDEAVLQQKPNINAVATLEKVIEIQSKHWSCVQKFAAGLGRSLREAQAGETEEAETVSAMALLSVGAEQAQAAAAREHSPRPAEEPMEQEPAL
# HDAC10 = HDAC10 (Homo sapiens, UniProt Q969S8); experiment: Inhibition of individual recombinant KDACs
# Sequence of HDAC10 (Q969S8 whole entry): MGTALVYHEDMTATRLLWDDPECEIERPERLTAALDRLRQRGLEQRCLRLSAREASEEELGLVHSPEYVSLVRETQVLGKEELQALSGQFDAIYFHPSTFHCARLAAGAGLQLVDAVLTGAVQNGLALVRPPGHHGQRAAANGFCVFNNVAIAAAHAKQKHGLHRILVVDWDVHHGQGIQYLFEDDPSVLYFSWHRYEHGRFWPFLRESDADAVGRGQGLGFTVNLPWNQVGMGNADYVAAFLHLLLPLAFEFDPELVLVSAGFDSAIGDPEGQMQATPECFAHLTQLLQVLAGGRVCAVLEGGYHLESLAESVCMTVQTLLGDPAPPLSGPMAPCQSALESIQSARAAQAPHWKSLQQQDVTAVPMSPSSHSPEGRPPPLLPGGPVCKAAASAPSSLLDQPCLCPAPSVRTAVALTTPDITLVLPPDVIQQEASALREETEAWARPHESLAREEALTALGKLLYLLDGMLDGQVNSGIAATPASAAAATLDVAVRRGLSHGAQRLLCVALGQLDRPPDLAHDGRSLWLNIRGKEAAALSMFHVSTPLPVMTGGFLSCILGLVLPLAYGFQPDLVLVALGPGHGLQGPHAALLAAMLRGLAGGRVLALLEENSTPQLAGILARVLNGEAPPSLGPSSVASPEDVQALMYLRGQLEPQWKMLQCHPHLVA
# HDAC4 = HDAC4 (Homo sapiens, UniProt P56524); experiment: Inhibition of individual recombinant KDACs
# Sequence of HDAC4 (P56524 whole entry): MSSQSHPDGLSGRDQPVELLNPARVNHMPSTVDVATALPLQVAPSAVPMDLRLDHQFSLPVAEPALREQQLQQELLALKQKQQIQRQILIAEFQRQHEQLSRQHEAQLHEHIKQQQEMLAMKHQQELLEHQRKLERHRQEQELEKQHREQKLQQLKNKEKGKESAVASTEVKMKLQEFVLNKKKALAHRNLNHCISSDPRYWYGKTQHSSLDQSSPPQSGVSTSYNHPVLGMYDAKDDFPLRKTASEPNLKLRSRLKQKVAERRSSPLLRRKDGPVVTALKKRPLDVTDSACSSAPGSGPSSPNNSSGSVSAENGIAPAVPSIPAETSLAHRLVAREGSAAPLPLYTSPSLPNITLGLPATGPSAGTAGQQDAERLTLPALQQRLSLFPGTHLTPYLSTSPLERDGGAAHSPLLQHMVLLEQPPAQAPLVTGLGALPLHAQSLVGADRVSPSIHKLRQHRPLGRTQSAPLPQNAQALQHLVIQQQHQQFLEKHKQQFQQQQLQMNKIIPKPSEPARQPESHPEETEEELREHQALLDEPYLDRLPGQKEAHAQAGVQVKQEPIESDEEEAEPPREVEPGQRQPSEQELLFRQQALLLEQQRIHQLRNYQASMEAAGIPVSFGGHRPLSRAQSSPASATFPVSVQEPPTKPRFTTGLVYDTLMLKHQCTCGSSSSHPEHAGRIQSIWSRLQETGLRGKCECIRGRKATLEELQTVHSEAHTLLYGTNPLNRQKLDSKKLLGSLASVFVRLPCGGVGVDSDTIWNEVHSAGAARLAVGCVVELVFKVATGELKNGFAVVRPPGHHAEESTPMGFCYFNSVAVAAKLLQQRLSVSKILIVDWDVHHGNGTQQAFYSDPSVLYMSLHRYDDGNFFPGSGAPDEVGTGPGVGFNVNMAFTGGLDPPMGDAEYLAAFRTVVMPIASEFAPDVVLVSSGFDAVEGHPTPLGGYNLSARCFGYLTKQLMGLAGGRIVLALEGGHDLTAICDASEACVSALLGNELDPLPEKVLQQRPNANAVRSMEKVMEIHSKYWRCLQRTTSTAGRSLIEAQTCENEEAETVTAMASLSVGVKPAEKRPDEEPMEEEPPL
# [4] = listed as A2780* of Table 4, ovarian, values as in Tables 1 and 2 (MTT), read-out: A2780* cytotoxicity IC50
# [5] = A2780, MTT, 96 h, read-out: A2780 IC50
SMILES,"IC50 [1, 4]",IC50 (TK-10),IC50 (H322M),IC50 (UACC-257),IC50 [2],IC50 (OVCAR-5),tubulin acetylation (flow cytometry) (acetylated tubulin),acetylated histone H4 (flow cytometry) (acetylated histone H4),IC50 (SK-OV-3),IC50 (MOLT-4),IC50 (HOP-92),IC50 (HT29),IC50 (H226),IC50 (A498),IC50 (MALME-3M),IC50 (T-47D),"IC50 [1, 5]",IC50 (MDA-MB-231),IC50 (K562),IC50 [3],also measured
"Nc1ccccc1NC(=O)c1ccc(CNC(=O)OCc2cccnc2)cc1 [Compound 1, Entinostat, reference compound]",600 nM,290 nM,4790 nM,1430 nM,400 ± 100 nM,1050 nM,No change in Tubulin acetylation status; also recorded: neither 1 nor 7 induced a measurable change in tubulin acetylation,Increased acetylated histone H4,2750 nM,1930 nM,40 nM,1030 nM,600 nM,360 nM,580 nM,460 nM,,,,,
"C=C(CN1CCN(c2ccccc2C(F)(F)F)CC1)c1ccc(C(=O)Nc2ccccc2N)cc1 [Compound 3, N-(2-aminophenyl)-4–(3-(4–(2-(trifluoromethyl)phenyl)piperazin-1-yl)prop-1-en-2-yl)benzamide]",7500 nM,4630 nM,11400 nM,4670 nM,7300 ± 400 nM,11800 nM,,,11000 nM,130 nM,1850 nM,4090 nM,7780 nM,3550 nM,4180 nM,7670 nM,7500 ± 700 nM,4680 nM,1540 nM,> 10000 nM,
"C=C(CN1CCN(c2cccc(C(F)(F)F)c2)CC1)c1ccc(C(=O)Nc2ccccc2N)cc1 [Compound 4, N-(2-aminophenyl)-4–(3-(4–(3-(trifluoromethyl)phenyl)piperazin-1-yl)prop-1-en-2-yl)benzamide]",1600 nM,810 nM,940 nM,760 nM,1400 ± 100 nM,6620 nM,,,,130 nM,1510 nM,1460 nM,1890 nM,10 nM,,13200 nM,1600 ± 500 nM,940 nM,180 nM,> 10000 nM,"fold improvement in cytotoxicity sensitivity compared to 7, TK-10 (TK-10; TK-10 renal): ~20 fold; fold improvement in cytotoxicity sensitivity compared to 7, H322M (H322M; H322M NSCLC): approximately 100 fold; fold improvement in cytotoxicity sensitivity compared to 7, UACC-257 (UACC-257; UACC-257 melanoma): ~35 fold; fold less sensitive than to 1, T-47D (T-47D; T-47D breast cell line): > 28 fold"
"C=C(CN1CCN(c2ccc(C(F)(F)F)cc2)CC1)c1ccc(C(=O)Nc2ccccc2N)cc1 [Compound 5, N-(2-aminophenyl)-4–(3-(4–(4-(trifluoromethyl)phenyl)piperazin-1-yl)prop-1-en-2-yl)benzamide]",1900 nM,21000 nM,40500 nM,2390 nM,400 ± 400 nM,> 100000 nM,,,12100 nM,600 nM,3940 nM,75700 nM,7520 nM,7670 nM,19300 nM,21800 nM,1900 ± 400 nM,3600 nM,300 nM,> 10000 nM,
"C=C(CN1CCN(c2ccccn2)CC1)c1ccc(C(=O)Nc2ccccc2N)cc1 [Compound 6, N-(2-aminophenyl)-4–(3-(4-(pyridin-2-yl)piperazin-1-yl)prop-1-en-2-yl)benzamide]",3500 nM,1850 nM,3120 nM,2320 nM,3200 ± 800 nM,6100 nM,,,1300 nM,,5700 nM,,,,,1230 nM,3500 ± 1300 nM,2170 nM,960 nM,> 10000 nM,
"C=C(CN1CCN(c2cccc(C(F)(F)F)n2)CC1)c1ccc(C(=O)Nc2ccccc2N)cc1 [Compound 7, N-(2-aminophenyl)-4–(3-(4–(6-(trifluoromethyl)pyridin-2-yl)piperazin-1-yl)prop-1-en-2-yl)benzamide]",800 nM,16400 nM,> 100000 nM,26500 nM,800 ± 300 nM,710 nM,No change in Tubulin acetylation status; also recorded: neither 1 nor 7 induced a measurable change in tubulin acetylation,Increased acetylated histone H4; also recorded: Increased induction in histone H4 acetylation,2550 nM,860 nM,,560 nM,13400 nM,970 nM,1060 nM,3010 nM,800 ± 100 nM,4620 nM,,> 10000 nM,IC50 (HDAC5): > 10000 nM; IC50 (HDAC10): > 10000 nM; IC50 (HDAC4): > 10000 nM
